These results are taken from patent US20250170112A1, “ADENOSINE LIGANDS FOR THE TREATMENT OF NEUROLOGICAL DISORDERS” (Lucy Therapeutics, Inc., priority 2022, published 2025).

One assay concerns the target T1, human A2B (Homo sapiens, UniProt P29275).
T1 construct: expressed in transfected cells; host or cells: HEK293
T1 sequence (P29275 1-332): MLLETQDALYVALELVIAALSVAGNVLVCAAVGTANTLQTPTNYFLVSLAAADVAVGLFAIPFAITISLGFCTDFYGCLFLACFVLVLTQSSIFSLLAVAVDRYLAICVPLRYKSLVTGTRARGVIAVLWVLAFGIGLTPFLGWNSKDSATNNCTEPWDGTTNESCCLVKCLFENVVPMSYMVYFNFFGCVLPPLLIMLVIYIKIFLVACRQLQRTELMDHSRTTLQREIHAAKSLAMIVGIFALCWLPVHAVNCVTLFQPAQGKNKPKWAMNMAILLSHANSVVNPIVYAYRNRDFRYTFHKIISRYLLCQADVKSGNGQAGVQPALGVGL
The assay is described as follows: cAMP HTRF assay for Gs coupled receptor, agonist test. Format: cell-based. Conditions: agonist activity; HEK293 cells expressing recombinant human A2B; read-out: A2BAR EC50. The protocol:
(§1) SPA ^35S-GTPγS experiments were conducted with Epics Therapeutics membrane preparations. cAMP HTRF assays were conducted with recombinant cell lines.
Dose response curves are performed in parallel with the reference compounds.
For agonist test (96 well): 12 μL of cells are mixed with 12 μL of the test compound at increasing concentrations and then incubated 30 min at room temperature. After addition of the lysis buffer containing cAMP-d2 and anti-cAMP cryptate detection reagents, plates are incubated 1 hour incubation at room temperature, and fluorescence ratios are measured according to the manufacturer specification, with the HTRF kit.
In general terms: In TR-FRET formats the signal depends on donor and acceptor labels being close together.

The target in assay [1] is T2, human Adenosine A1 receptor (Homo sapiens, UniProt P30542).
T2 construct: host or cells: CHO-K1
T2 sequence (P30542 1-326): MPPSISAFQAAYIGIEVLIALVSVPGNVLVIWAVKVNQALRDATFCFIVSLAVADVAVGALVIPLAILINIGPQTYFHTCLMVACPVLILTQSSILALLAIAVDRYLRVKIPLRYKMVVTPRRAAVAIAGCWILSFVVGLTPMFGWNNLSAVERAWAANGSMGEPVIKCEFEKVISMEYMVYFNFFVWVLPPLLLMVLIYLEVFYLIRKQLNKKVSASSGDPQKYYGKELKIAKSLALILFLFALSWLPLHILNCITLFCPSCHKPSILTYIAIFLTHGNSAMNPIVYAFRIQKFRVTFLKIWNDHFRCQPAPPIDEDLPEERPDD
The assay is described as follows: GTPγS scintillation proximity assay, agonist testing. Format: biochemical. The note with it: agonist activity; membrane extracts of CHO-K1 cells expressing recombinant human A1; read-out: A1AR EC50. The protocol:
as §1
• Assay buffer: 20 mM HEPES pH 7.4; 100 mM NaCl, 10 μg/mL saponin, MgCl2 at optimized concentration for the specific receptor. • Membranes: membrane extracts prepared from CHO-K1 cells expressing recombinant human Adenosine A1 receptor, thawed on ice, diluted in assay buffer and kept on ice. • GDP: diluted in assay buffer at the optimized concentration for the specific receptor Beads: PVT-WGA (Perkin Elmer, RPNQ001), diluted in assay buffer at 50 mg/mL (0.5 mg/10 μL) • GTPγ^35S: (Perkin Elmer, NEG030X), diluted in assay buffer for a final 0.1 nM assay concentration
Protocol for agonist testing: membranes are mixed with GDP (volume:volume). In parallel, GTPγ[^35S] is mixed with the beads (volume:volume) just before starting the reaction. The following reagents are successively added in the wells of an Optiplate (Perkin Elmer): 50 μL of test or reference ligand, 25 μL of the membranes:GDP mix, and 25 μL of the GTPγ[^35S]:beads mix. The plates are covered with a top seal, mixed on an orbital shaker for 2 min, and then incubated for 1 hour at room temperature. Then the plates are centrifuged for 10 min at 2000 rpm, incubated at room temperature and counted for 30 sec/well with a PerkinElmer TopCount™ reader. • Conditions for the GTPγS scintillation proximity assay are shown in Table 14.
(In general: In a scintillation proximity assay essentially only radioactivity close to the scintillant gives light.)

Each structure is given as a SMILES string. Some results are limits rather than exact numbers.

Usually EC50 stands for the concentration that produces a half-maximal response. For `N#Cc1c(SCc2cccnn2)nc(C2CC2)c(C#N)c1-c1ccc(OCCOC(F)F)cc1` [Compound 239], the EC50 at human A2B is above 10000 nM; in assay [1], 840 nM.

For `CC(C)(O)COc1ccc(-c2c(C#N)c(N)nc(SCC3COC3)c2C#N)cc1` [Compound 317], the EC50 is above 10000 nM at human A2B and 88.7 nM in assay [1].

In the case of `N#Cc1c(N)nc(SCc2ccnc3[nH]ccc23)c(C#N)c1-c1ccc(OCCO)cc1` [Compound 14], the EC50 was 81.7 nM at human A2B and 29.2 nM in assay [1].

For the compound `COCCOc1ccc(-c2c(C#N)c(N)nc(SCC(N)=O)c2C#N)cc1` [Compound 136], the EC50 on human A2B turned out to be 87 nM; in assay [1] it was 768 nM.

In the case of `N#Cc1c(SCc2cccnc2)nc(N2CCCC2)c(C#N)c1-c1ccc(OC(F)(F)CO)cc1` [Compound 263], the EC50 (at human A2B; in assay [1]) was above 10000 nM each time.

Take `N#Cc1c(N)nc(SCCC(F)(F)F)c(C#N)c1-c1ccc(O[C@H]2C[C@H](O)C2)cc1` [Compound 328]: the EC50 (on human A2B; in assay [1]) was above 10000 nM in each case.

As to `N#Cc1c(SCCO)nc(N2CCC2)c(C#N)c1-c1ccc(OCCO)cc1` [Compound 90], the results for the EC50 (on human A2B; in assay [1]) were 869 nM and 347 nM, respectively.

On to `COCCOc1ccc(-c2c(C#N)c(SCc3cccnc3)nc(N3CC(F)(F)C3)c2C#N)cc1` [Compound 276], for which the figures for the EC50 (on human A2B; in assay [1]) were above 10000 nM and 98.8 nM, respectively.

Consider `CNCCSc1nc(N)c(C#N)c(-c2ccc(OCCO)cc2)c1C#N` [Compound 128], for which the results for the EC50 (on human A2B; in assay [1]) were 255 nM and above 10000 nM, respectively.

Take `CN(C)c1nc(SCC2COC2)c(C#N)c(-c2ccc(OC3COC3)cc2)c1C#N` [Compound 222]: the EC50 on human A2B was above 10000 nM; in assay [1] it was 32 nM.

With `N#Cc1c(N)nc(SCC(N)=O)c(C#N)c1-c1ccc(OCCO)cc1` [Compound 129], the EC50 worked out at 6 nM on human A2B and 121 nM in assay [1].

Regarding `N#Cc1c(N)nc(SCc2cccc(OC(F)(F)F)c2)c(C#N)c1-c1ccc(OC2COC2)cc1` [Compound 29], the EC50 on human A2B was 6120 nM; in assay [1] it was 79 nM.

Consider `N#Cc1c(SCC2COC2)nc(N2CCCC2)c(C#N)c1-c1ccc(OC2COC2)cc1` [Compound 292], for which the EC50 on human A2B was above 10000 nM; in assay [1], 93 nM.

In the case of `N#Cc1c(N)nc(SCC2COC2)c(C#N)c1-c1ccc(OCCO)cc1` [Compound 223], the values for the EC50 (on human A2B; in assay [1]) were 401 nM and 1.5 nM, respectively.

Turning to `N#Cc1c(N)nc(OCc2cccnc2)c(C#N)c1-c1ccc(OCCO)cc1` [Compound 159], the EC50 on human A2B came out at 3.3 nM; in assay [1], 41 nM.

Consider `CC1(CSc2nc(N)c(C#N)c(-c3ccc(OC4COC4)cc3)c2C#N)COC1` [Compound 226], for which the figures for the EC50 (at human A2B; in assay [1]) were above 10000 nM and 22 nM, respectively.

With `N#Cc1c(N)nc(SCC2COCCO2)c(C#N)c1-c1ccc(OC2COC2)cc1` (stereo not shown) [Compound 301], the EC50 is above 10000 nM on human A2B and 228 nM in assay [1].

As for `N#Cc1c(N)nc(SCc2c[nH]c3ccccc23)c(C#N)c1-c1ccc(OCCO)cc1` [Compound 206], the EC50 was found to be 495 nM at human A2B and 981 nM in assay [1].

Turning to `N#Cc1c(N)nc(SCC2CCO2)c(C#N)c1-c1ccc(OCCO)cc1` (stereo not shown) [Compound 110], the EC50 on human A2B turned out to be 177 nM; in assay [1], 253 nM.

On to `COCCOc1ccc(-c2c(C#N)c(SCC3COC3)nc(N3CC(O)C3)c2C#N)cc1` [Compound 270], for which the EC50 on human A2B is above 10000 nM; in assay [1] it was 205 nM.

Regarding `COCCOc1ccc(-c2c(C#N)c(SCc3cccnc3)nc(N3CCC3)c2C#N)cc1` [Compound 115], the results for the EC50 (at human A2B; in assay [1]) were above 10000 nM and 31 nM, respectively.

Turning to `N#Cc1c(SCCC(F)(F)F)nc(N2CCCC2)c(C#N)c1-c1ccc(OCCO)cc1` [Compound 104], the EC50 is above 10000 nM on human A2B and 1790 nM in assay [1].

With `N#Cc1c(SCc2cccnc2)nc(N2CC(O)C2)c(C#N)c1-c1ccc(OC2COC2)cc1` [Compound 268], the values for the concentration for a half-maximal effect (EC50) (at human A2B; in assay [1]) were 56.7 nM and 1.16 nM, respectively.
